Results reported in paper PMC12749252 (Nature Communications, 2025).

Columns and labels:
[1] = target: WEE1 (Homo sapiens, UniProt P30291); experiment: NanoBRET target engagement in HEK293 cells; assay type: cell-based
[2] = target: GCN2 (Homo sapiens, UniProt Q9P2K8); experiment: Eurofins KinaseProfiler in vitro; assay type: biochemical
Sequence of GCN2 (Q9P2K8 whole entry): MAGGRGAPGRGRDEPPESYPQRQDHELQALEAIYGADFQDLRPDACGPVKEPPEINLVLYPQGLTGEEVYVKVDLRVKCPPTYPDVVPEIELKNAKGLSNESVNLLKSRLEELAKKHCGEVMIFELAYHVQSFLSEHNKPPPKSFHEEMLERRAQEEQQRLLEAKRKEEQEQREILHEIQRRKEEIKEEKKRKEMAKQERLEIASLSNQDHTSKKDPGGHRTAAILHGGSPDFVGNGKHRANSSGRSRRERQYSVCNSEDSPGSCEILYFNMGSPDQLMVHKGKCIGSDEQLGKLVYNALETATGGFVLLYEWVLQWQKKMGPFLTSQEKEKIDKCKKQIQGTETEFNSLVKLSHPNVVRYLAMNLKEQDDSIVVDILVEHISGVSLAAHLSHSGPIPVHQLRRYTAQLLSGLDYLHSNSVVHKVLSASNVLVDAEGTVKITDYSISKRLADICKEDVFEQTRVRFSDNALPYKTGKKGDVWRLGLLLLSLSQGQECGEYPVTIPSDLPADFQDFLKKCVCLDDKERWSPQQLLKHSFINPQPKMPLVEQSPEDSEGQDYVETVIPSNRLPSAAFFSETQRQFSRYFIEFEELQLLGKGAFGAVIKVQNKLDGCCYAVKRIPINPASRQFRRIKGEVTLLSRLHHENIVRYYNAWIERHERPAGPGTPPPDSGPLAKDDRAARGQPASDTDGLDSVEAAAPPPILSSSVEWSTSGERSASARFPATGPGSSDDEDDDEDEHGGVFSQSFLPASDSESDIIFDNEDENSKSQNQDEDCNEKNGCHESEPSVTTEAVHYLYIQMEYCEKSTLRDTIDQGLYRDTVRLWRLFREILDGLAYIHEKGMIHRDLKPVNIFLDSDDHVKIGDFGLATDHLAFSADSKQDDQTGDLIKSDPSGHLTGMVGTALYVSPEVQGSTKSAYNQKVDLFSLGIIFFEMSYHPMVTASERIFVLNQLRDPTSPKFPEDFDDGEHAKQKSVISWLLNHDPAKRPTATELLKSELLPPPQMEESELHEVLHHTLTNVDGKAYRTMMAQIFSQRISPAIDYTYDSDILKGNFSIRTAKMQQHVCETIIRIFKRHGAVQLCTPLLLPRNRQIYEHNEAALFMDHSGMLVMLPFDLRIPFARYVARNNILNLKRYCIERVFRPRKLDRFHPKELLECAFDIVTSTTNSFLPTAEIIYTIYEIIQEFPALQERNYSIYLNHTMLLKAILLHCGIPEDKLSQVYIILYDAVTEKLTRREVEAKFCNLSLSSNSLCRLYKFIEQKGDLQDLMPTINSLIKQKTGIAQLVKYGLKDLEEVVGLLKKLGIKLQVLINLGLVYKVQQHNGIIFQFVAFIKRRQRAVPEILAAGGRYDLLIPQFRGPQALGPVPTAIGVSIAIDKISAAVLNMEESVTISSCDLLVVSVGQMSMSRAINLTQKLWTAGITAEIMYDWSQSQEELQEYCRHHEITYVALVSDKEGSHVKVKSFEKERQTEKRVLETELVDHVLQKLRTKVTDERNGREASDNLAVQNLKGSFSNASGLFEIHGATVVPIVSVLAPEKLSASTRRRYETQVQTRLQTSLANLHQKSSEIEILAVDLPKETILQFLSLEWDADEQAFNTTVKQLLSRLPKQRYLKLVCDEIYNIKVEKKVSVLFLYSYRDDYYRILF

Sequence of WEE1 (P30291 whole entry): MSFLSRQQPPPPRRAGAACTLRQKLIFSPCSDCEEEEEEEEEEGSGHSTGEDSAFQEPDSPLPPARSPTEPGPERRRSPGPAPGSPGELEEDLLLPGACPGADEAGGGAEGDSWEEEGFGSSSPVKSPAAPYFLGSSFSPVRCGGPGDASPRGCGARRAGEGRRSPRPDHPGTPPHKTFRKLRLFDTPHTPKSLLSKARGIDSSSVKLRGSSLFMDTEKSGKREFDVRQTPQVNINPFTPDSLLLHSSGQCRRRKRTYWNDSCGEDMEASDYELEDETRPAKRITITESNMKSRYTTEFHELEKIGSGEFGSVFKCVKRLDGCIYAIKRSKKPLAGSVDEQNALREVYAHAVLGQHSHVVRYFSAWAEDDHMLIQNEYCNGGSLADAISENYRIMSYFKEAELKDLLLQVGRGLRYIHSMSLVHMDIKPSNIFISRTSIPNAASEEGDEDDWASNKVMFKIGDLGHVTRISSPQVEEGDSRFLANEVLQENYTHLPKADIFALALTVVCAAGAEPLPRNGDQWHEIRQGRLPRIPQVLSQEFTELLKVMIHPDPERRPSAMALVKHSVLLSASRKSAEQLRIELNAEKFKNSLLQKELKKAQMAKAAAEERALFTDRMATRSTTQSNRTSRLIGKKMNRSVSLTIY

SMILES	NanoBRET target engagement in HEK293 cells (only at high doses) [1]	IC50 [2] [nM]
Cc1cc2c(C(N)=O)c(N)n(-c3c(C)ccc(O)c3C)c2nc1C [RP-6306]	while PKMYT1i only interacted at high doses (Fig. 5c)	
C=CCn1c(=O)c2cnc(Nc3ccc(N4CCN(C)CC4)cc3)nc2n1-c1cccc(C(C)(C)O)n1 [AZD1775]		140
